In ChEMBL document CHEMBL1201862, “PubChem BioAssay data set” (2004):
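The compound was tested at five concentrations on cells cultured in 96-well plates, with a 48-hour exposure period. Here, GI50 denotes the concentration required for 50% inhibition of growth.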 Activity calls are given as the source filed them. Cut-off read from the data, not from the text of the source: active = GI50 up to about 1.1 µM and inactive = higher.

How the values were obtained:
Assay in all cases: inhibition of tumour cell growth, NCI panel, 48 h
786-0 = tested on: 786-0
A549 = tested on: A549
ACHN = tested on: ACHN
CCRF-CEM = tested on: CCRF-CEM
COLO 205 = tested on: COLO 205
DMS-114 = tested on: DMS-114
DMS-273 = tested on: DMS-273
EKVX = tested on: EKVX
HCC 2998 = tested on: HCC 2998
HCT-116 = tested on: HCT-116
HCT-15 = tested on: HCT-15
HL-60 = tested on: HL-60
HOP-62 = tested on: HOP-62
HT-29 = tested on: HT-29
IGROV-1 = tested on: IGROV-1
K562 = tested on: K562
KM-20L2 = tested on: KM-20L2
KM12 = tested on: KM12
LOX IMVI = tested on: LOX IMVI
LXFL 529 = tested on: LXFL 529
M14 = tested on: M14
M19-MEL = tested on: M19-MEL
MOLT-4 = tested on: MOLT-4
NCI-H226 = tested on: NCI-H226
NCI-H23 = tested on: NCI-H23
NCI-H460 = tested on: NCI-H460
OVCAR-3 = tested on: OVCAR-3
OVCAR-4 = tested on: OVCAR-4
OVCAR-5 = tested on: OVCAR-5
OVCAR-8 = tested on: OVCAR-8
RPMI-8226 = tested on: RPMI-8226
RXF 393 = tested on: RXF 393
SF-268 = tested on: SF-268
SF-295 = tested on: SF-295
SF-539 = tested on: SF-539
SK-MEL-28 = tested on: SK-MEL-28
SK-MEL-5 = tested on: SK-MEL-5
SK-OV-3 = tested on: SK-OV-3
SN12C = tested on: SN12C
SNB-19 = tested on: SNB-19
SNB-75 = tested on: SNB-75
SNB-78 = tested on: SNB-78
SR = tested on: SR
SW-620 = tested on: SW-620
TK-10 = tested on: TK-10
U-251 = tested on: U-251
UACC-257 = tested on: UACC-257
UACC-62 = tested on: UACC-62
UO-31 = tested on: UO-31
XF498 = tested on: XF498
A498 = tested on: A498
CAKI-1 = tested on: CAKI-1
DLD-1 = tested on: DLD-1
HOP-92 = tested on: HOP-92
Malme-3M = tested on: Malme-3M
NCI-H522 = tested on: NCI-H522
SK-MEL-2 = tested on: SK-MEL-2
HOP-18 = tested on: HOP-18

## Cc1cn(C2CC(N(O)Cc3ccccc3)C(CO)O2)c(=O)[nH]c1=O (stereo not given)
786-0
  GI50: 5.24 µM (inactive)
A549
  GI50: > 100 µM (inactive)
ACHN
  GI50: > 100 µM (inactive)
CCRF-CEM
  GI50: > 100 µM (inactive)
COLO 205
  GI50: > 100 µM (inactive)
DMS-114
  GI50: > 100 µM (inactive)
DMS-273
  GI50: > 100 µM (inactive)
EKVX
  GI50: > 100 µM (inactive)
HCC 2998
  GI50: > 100 µM (inactive)
HCT-116
  GI50: > 100 µM (inactive)
HCT-15
  GI50: > 100 µM
HL-60
  GI50: > 100 µM (inactive)
HOP-62
  GI50: > 100 µM (inactive)
HT-29
  GI50: > 100 µM (inactive)
IGROV-1
  GI50: > 100 µM (inactive)
K562
  GI50: > 100 µM (inactive)
KM-20L2
  GI50: > 100 µM (inactive)
KM12
  GI50: > 100 µM (inactive)
LOX IMVI
  GI50: > 100 µM (inactive)
LXFL 529
  GI50: > 100 µM (inactive)
M14
  GI50: > 100 µM (inactive)
M19-MEL
  GI50: > 100 µM (inactive)
MOLT-4
  GI50: > 100 µM (inactive)
NCI-H226
  GI50: > 100 µM (inactive)
NCI-H23
  GI50: > 100 µM (inactive)
NCI-H460
  GI50: > 100 µM (inactive)
OVCAR-3
  GI50: > 100 µM (inactive)
OVCAR-4
  GI50: > 100 µM (inactive)
OVCAR-5
  GI50: > 100 µM (inactive)
OVCAR-8
  GI50: > 100 µM (inactive)
RPMI-8226
  GI50: > 100 µM (inactive)
RXF 393
  GI50: > 100 µM (inactive)
SF-268
  GI50: > 100 µM (inactive)
SF-295
  GI50: > 100 µM (inactive)
SF-539
  GI50: > 100 µM (inactive)
SK-MEL-28
  GI50: > 100 µM (inactive)
SK-MEL-5
  GI50: > 100 µM (inactive)
SK-OV-3
  GI50: > 100 µM (inactive)
SN12C
  GI50: > 100 µM (inactive)
SNB-19
  GI50: > 100 µM (inactive)
SNB-75
  GI50: > 100 µM (inactive)
SNB-78
  GI50: > 100 µM (inactive)
SR
  GI50: > 100 µM (inactive)
SW-620
  GI50: > 100 µM (inactive)
TK-10
  GI50: > 100 µM (inactive)
U-251
  GI50: > 100 µM (inactive)
UACC-257
  GI50: > 100 µM (inactive)
UACC-62
  GI50: > 100 µM (inactive)
UO-31
  GI50: > 100 µM (inactive)
XF498
  GI50: > 100 µM (inactive)

## O=C(/C(=C/c1ccccc1)c1ccccc1)N1c2ccccc2CC1c1c[nH]c2ccccc12 (stereo not given)
786-0
  GI50: > 100 µM (inactive)
A498
  GI50: > 100 µM (inactive)
A549
  GI50: 11 µM (inactive)
ACHN
  GI50: 16.9 µM (inactive)
CAKI-1
  GI50: 36.1 µM (inactive)
CCRF-CEM
  GI50: 8.91 µM (inactive)
COLO 205
  GI50: 6.27 µM (inactive)
DLD-1
  GI50: 53.2 µM (inactive)
DMS-114
  GI50: 5.7 µM (inactive)
DMS-273
  GI50: 7.83 µM (inactive)
EKVX
  GI50: 25.2 µM (inactive)
HCC 2998
  GI50: > 100 µM (inactive)
HCT-116
  GI50: 5.51 µM (inactive)
HCT-15
  GI50: 7.76 µM
HL-60
  GI50: 3.19 µM (inactive)
HOP-62
  GI50: > 100 µM (inactive)
HOP-92
  GI50: 81.1 µM (inactive)
HT-29
  GI50: 76.4 µM (inactive)
IGROV-1
  GI50: > 100 µM (inactive)
K562
  GI50: 5.05 µM (inactive)
KM-20L2
  GI50: 26.8 µM (inactive)
KM12
  GI50: 10.2 µM (inactive)
LOX IMVI
  GI50: 21.6 µM (inactive)
LXFL 529
  GI50: 8.3 µM (inactive)
M14
  GI50: 9.18 µM (inactive)
M19-MEL
  GI50: 38.6 µM (inactive)
MOLT-4
  GI50: 3.33 µM (inactive)
Malme-3M
  GI50: 28.5 µM (inactive)
NCI-H226
  GI50: 41.1 µM (inactive)
NCI-H23
  GI50: 15 µM (inactive)
NCI-H460
  GI50: 7.48 µM (inactive)
NCI-H522
  GI50: 7.8 µM (inactive)
OVCAR-3
  GI50: 3.05 µM (inactive)
OVCAR-4
  GI50: 37.8 µM (inactive)
OVCAR-5
  GI50: 38.6 µM (inactive)
OVCAR-8
  GI50: > 100 µM (inactive)
RPMI-8226
  GI50: 15.6 µM (inactive)
RXF 393
  GI50: 6.07 µM (inactive)
SF-295
  GI50: 7.62 µM (inactive)
SF-539
  GI50: > 100 µM (inactive)
SK-MEL-28
  GI50: > 100 µM (inactive)
SK-MEL-2
  GI50: 6.03 µM (inactive)
SK-MEL-5
  GI50: 21.7 µM (inactive)
SK-OV-3
  GI50: > 100 µM (inactive)
SN12C
  GI50: 22.2 µM (inactive)
SNB-19
  GI50: 23.7 µM (inactive)
SNB-75
  GI50: > 100 µM (inactive)
SNB-78
  GI50: 9.2 µM (inactive)
SR
  GI50: > 100 µM (inactive)
SW-620
  GI50: 59.2 µM (inactive)
TK-10
  GI50: 45.7 µM (inactive)
U-251
  GI50: 9.53 µM (inactive)
UACC-257
  GI50: 54.5 µM (inactive)
UACC-62
  GI50: > 100 µM (inactive)
UO-31
  GI50: 5.11 µM (inactive)
XF498
  GI50: 3.05 µM (inactive)

## CC1=C[P+](Cc2ccccc2)(c2ccccc2)CC1 (stereo not given)
A498
  GI50: > 100 µM (inactive)
CCRF-CEM
  GI50: > 100 µM (inactive)
COLO 205
  GI50: 31.6 µM (inactive)
DMS-114
  GI50: 46.9 µM (inactive)
DMS-273
  GI50: 78 µM (inactive)
EKVX
  GI50: 54.6 µM (inactive)
HCT-116
  GI50: > 100 µM (inactive)
HL-60
  GI50: 34 µM (inactive)
HOP-18
  GI50: > 100 µM (inactive)
HOP-62
  GI50: > 100 µM (inactive)
HT-29
  GI50: 66.4 µM (inactive)
IGROV-1
  GI50: 81.1 µM (inactive)
KM-20L2
  GI50: 75.2 µM (inactive)
KM12
  GI50: > 100 µM (inactive)
LOX IMVI
  GI50: 90.4 µM (inactive)
LXFL 529
  GI50: 45.4 µM (inactive)
M19-MEL
  GI50: 46.8 µM (inactive)
NCI-H226
  GI50: > 100 µM (inactive)
NCI-H522
  GI50: 41.7 µM (inactive)
OVCAR-3
  GI50: 44.3 µM (inactive)
RPMI-8226
  GI50: 25.7 µM (inactive)
SF-539
  GI50: > 100 µM (inactive)
SK-MEL-2
  GI50: > 100 µM (inactive)
SK-MEL-5
  GI50: 21.5 µM (inactive)
SNB-19
  GI50: > 100 µM (inactive)
SW-620
  GI50: > 100 µM (inactive)
UACC-257
  GI50: 41.9 µM (inactive)
UACC-62
  GI50: 63.7 µM (inactive)
UO-31
  GI50: > 100 µM (inactive)
